Measurements published in ChEMBL document CHEMBL1153923, “Carbonic anhydrase inhibitors. Inhibition of human erythrocyte isozymes I and II with a series of antioxidant phenols” (Bioorg Med Chem, 2009).

Assays:
[1] = biological target: Carbonic anhydrase 1 (Homo sapiens, UniProt P00915); test: Inhibition of human erythrocyte CA1 esterase activity using 4-nitrophenyl acetate substrate
[2] = biological target: Carbonic anhydrase 2 (Homo sapiens, UniProt P00918)
Description: Inhibition of human erythrocyte CA2 esterase activity using 4-nitrophenyl acetate substrate

Carbonic anhydrase 1, sequence (P00915 whole entry): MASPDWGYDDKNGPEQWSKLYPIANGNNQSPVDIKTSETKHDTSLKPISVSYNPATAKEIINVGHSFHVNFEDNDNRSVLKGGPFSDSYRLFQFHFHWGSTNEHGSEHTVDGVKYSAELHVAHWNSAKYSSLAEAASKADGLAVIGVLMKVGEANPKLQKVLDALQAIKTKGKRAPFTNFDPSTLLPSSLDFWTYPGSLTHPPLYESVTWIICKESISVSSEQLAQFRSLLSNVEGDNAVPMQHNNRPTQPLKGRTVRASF

Ki [1] | Ki [2] | Structure (SMILES)
37.5 µM | – | CC(C)(C)c1cc(-c2cc(C(C)(C)C)c(O)c(C(C)(C)C)c2)cc(C(C)(C)C)c1O
55.6 µM | – | COc1c(O)cccc1C=O
63.7 µM | – | COc1cc(C(C)(C)C)c(O)c(C(C)(C)C)c1
92.8 µM | 4.05 µM | Cc1cc(-c2cc(C)c(O)c(C)c2)cc(C)c1O
245 µM | 0.63 µM | Cc1cc(C(C)(C)C)c(O)c(C(C)(C)C)c1 [BUTYLATED HYDROXYTOLUENE]
60.2 µM | 2.94 µM | COc1ccccc1O [GUAIACOL]
275 µM | – | CC(C)(C)c1cccc(C(C)(C)C)c1O
37.9 µM | – | CC(C)c1cc(-c2cc(C(C)C)c(O)c(C(C)C)c2)cc(C(C)C)c1O

Structure (SMILES) | Ki [1] | Ki [2]
Cc1cccc(C)c1O | 198 µM | 113 µM
CC(C)c1cccc(C(C)C)c1O [PROPOFOL] | 98.9 µM | 19.5 µM
